Results taken from patent publication US20250388575A1, “HETEROBIFUNCTIONAL COMPOUNDS AND METHODS OF TREATING DISEASE” (Halda Therapeutics OpCo, Inc., priority 2022, published 2025).
Read-outs that look alike come from different tables or passages of the source.

Columns and labels:
[1] = target: BRD4-BD1 (Homo sapiens (Human), UniProt O60885); assay: bromoKdELECT assay for binding affinity to BRD4-BD1; conditions: 11-point 3-fold dilution
Description: (§1) Compounds were tested using a bromoKdELECT assay. T7 phage strains displaying bromodomains were grown in parallel in 24-well blocks in an E. coli host derived from the BL21 strain. E. coli were grown to log-phase and infected with T7 phage from a frozen stock (multiplicity of infection=0.4) and incubated with shaking at 32° C. until lysis (90-150 minutes). The lysates were centrifuged (5,000×g) and filtered (0.2 μm) to remove cell debris. Streptavidin-coated magnetic beads were treated with biotinylated small molecule or acetylated peptide ligands for 30 minutes at room temperature to generate affinity resins for bromodomain assays. The liganded beads were blocked with excess biotin and washed with blocking buffer (SeaBlock (Pierce), 1% BSA, 0.05% Tween 20, 1 mM DTT) to remove unbound ligand and to reduce nonspecific phage binding. Binding reactions were assembled by combining bromodomains, liganded affinity beads, and test compounds in 1× binding buffer (17% SeaBlock, 0.33×PBS, 0.04% Tween 20, 0.02% BSA, 0.004% Sodium azide, 7.4 mM DTT). Test compounds were prepared as 1000× stocks in 100% DMSO. Kds were determined using an 11-point 3-fold compound dilution series with one DMSO control point. All compounds for Kd measurements are distributed by acoustic transfer (non-contact dispensing) in 100% DMSO. The compounds were then diluted directly into the assays such that the final concentration of DMSO was 0.09%. All reactions performed in polypropylene 384-well plates. Each was a final volume of 0.02 ml. The assay plates were incubated at room temperature with shaking for 1 hour and the affinity beads were washed with wash buffer (1×PBS, 0.05% Tween 20). The beads were then resuspended in elution buffer (1×PBS, 0.05% Tween 20, 2 μM non-biotinylated affinity ligand) and incubated at room temperature with shaking for 30 minutes. The bromodomain concentration in the eluates was measured by qPCR.

[2] = target: BRD4-BD2 (Homo sapiens (Human), UniProt O60885); assay: bromoKdELECT assay for binding affinity to BRD4-BD2; conditions: 11-point 3-fold dilution
Description: as §1

[3] = system: T-Rex 293 cell line SC3 cells having increased expression of androgen receptor protein; assay: Cellular growth inhibition, T-Rex 293 SC3 cells with increased androgen receptor expression (doxycycline), CellTiter-Glo; assay type: cell-based; conditions: T-Rex 293 SC3 cells with increased androgen receptor expression (exposed to 10 ng/mL doxycycline), 72 hours, CellTiter-Glo; read-out: GI50
In short: (§2)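 SC3, a T-Rex 293 clone with doxycycline-inducible wild-type androgen receptor, was seeded in phenol red-free DMEM with 10% charcoal-dextran FBS, with or without 10 ng/mL doxycycline. Compound added at 24 h (0.5% DMSO) for 72 h at 37° C. CellTiter-Glo 2.0 luminescence; GI50 from four-parameter fit.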

[4] = system: T-Rex 293 cell line SC3 cells lacking increased expression of androgen receptor protein; assay: Cellular growth inhibition, T-Rex 293 SC3 cells lacking increased androgen receptor expression (no doxycycline), CellTiter-Glo; assay type: cell-based; conditions: T-Rex 293 SC3 cells lacking increased androgen receptor expression (not exposed to doxycycline), 72 hours, CellTiter-Glo; read-out: GI50
In short: as §2

[5] = system: VCaP cells; assay: Cellular growth inhibition assay for VCaP cells, CellTiter-Glo; assay type: cell-based, human; conditions: VCaP cells, 72 hours, CellTiter-Glo, read-out: GI50
In short: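 GI50 values come from four-parameter curve fits of luminescence data normalized to a zero baseline. Compound, in medium with 0.5% DMSO, was added one day after plating and left for 72 h before CellTiter-Glo 2.0 addition.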

[6] = system: T47D cells; assay: Cellular growth inhibition assay for T47D cells, CellTiter-Glo; assay type: cell-based, human; conditions: 72 hours treatment, CellTiter-Glo 2.0
In short: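 Luminescence from CellTiter-Glo 2.0 after 72 h of compound exposure gives the viability signal. Cells grew in insulin-supplemented (0.2 units/mL) DMEM with 10% FBS and were treated one day after seeding at 0.5% DMSO. GI50 values come from four-parameter nonlinear regression.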

Kd [1] [nM]	Kd [2] [nM]	GI50 ([5]; Homo sapiens) [nM]	GI50 [5] [nM]	GI50 ([6]; Homo sapiens) [nM]	GI50 [6] [nM]	SMILES	GI50 [3] [nM]	GI50 [4] [nM]
< 50	< 50	< 500				CCS(=O)(=O)Nc1ccc(Oc2ccc(CCOC3CCN(c4ccc(C(=O)N[C@H]5CC[C@H](Oc6ccc(C#N)c(Cl)c6)CC5)nn4)CC3)cc2)c(-c2cn(C)c(=O)c3[nH]ccc23)c1 [I-35]	< 500	< 500
		500 to 1500		500 to 1500		Cn1cc(-c2cc(C3CCS(=O)(=O)CC3)ccc2Oc2ccc(CCC3CCN(c4ccc(C(=O)NC5CCC(Oc6ccc(C#N)c(Cl)c6)CC5)nn4)CC3)cc2)c2cc[nH]c2c1=O (stereo not drawn) [I-250, N-[4-(3-chloro-4-cyano-phenoxy)cyclohexyl]-6-[4-[2-[4-[4-(1,1-dioxothian-4-yl)-2-(6-methyl-7-oxo-1H-pyrrolo[2,3-c]pyridin-4-yl)phenoxy]phenyl]ethyl]-1-piperidyl]pyridazine-3-carboxamide]	< 500	< 500
			< 500		< 500	Cn1cc(-c2cc(C(C)(C)O)ccc2Oc2ccc(C3CC(N4CCN(c5ccc(C(=O)N[C@H]6CC[C@H](Oc7ccc(C#N)c(Cl)c7)CC6)nn5)CC4)C3)cc2)c2cc[nH]c2c1=O (stereo partly drawn) [I-136]	< 500	< 500
			< 500		< 500	Cn1cc(-c2cc(C(C)(C)O)ccc2Oc2cc(F)c(CCC3CCN(c4ccc(C(=O)N[C@H]5CC[C@H](Oc6ccc(C#N)c(Cl)c6)CC5)nn4)CC3)cc2F)c2cc[nH]c2c1=O [I-116]	< 500	500 to 1500
			< 500		< 500	CCS(=O)(=O)Cc1ccc(Oc2ccc(CCCCC3CCN(c4ccc(C(=O)N[C@H]5CC[C@H](Oc6ccc(C#N)c(Cl)c6)CC5)nn4)CC3)cc2)c(-c2cn(C)c(=O)c3[nH]ccc23)c1 [I-157]	< 500	< 500
		< 500		< 500		Cn1cc(-c2cc(C(C)(C)O)ccc2Oc2ccc(N3CC(OC4CCN(c5ccc(C(=O)N[C@H]6CC[C@H](Oc7ccc(C#N)c(Cl)c7)CC6)nn5)CC4)C3)cc2)c2cc[nH]c2c1=O [I-146]	< 500	< 500
		< 500		< 500		Cn1cc(-c2cc(C(C)(C)O)ccc2Oc2ccc(CN3CC4(C3)CN(c3ccc(C(=O)N[C@H]5CC[C@H](Oc6ccc(C#N)c(Cl)c6)CC5)nn3)C4)cc2)c2cc[nH]c2c1=O [I-123]	< 500	500 to 1500
		< 500		500 to 1500		Cn1cc(-c2cc(C3CCCS3(=O)=O)ccc2Oc2ccc(CCC3CCN(c4ccc(C(=O)NC5CCC(Oc6ccc(C#N)c(Cl)c6)CC5)nn4)CC3)cc2)c2cc[nH]c2c1=O (stereo not drawn) [I-252, N-[4-(3-chloro-4-cyano-phenoxy)cyclohexyl]-6-[4-[2-[4-[4-(1,1-dioxothiolan-2-yl)-2-(6-methyl-7-oxo-1Hpyrrolo[2,3-c]pyridin-4-yl)phenoxy]phenyl]ethyl]-1-piperidyl]pyridazine-3-carboxamide]	< 500	> 3000
		< 500		< 500		Cn1cc(-c2cc(C(C)(C)O)ccc2Oc2ccc(CC3CN(c4ccc(C(=O)N[C@H]5CC[C@H](Oc6ccc(C#N)c(Cl)c6)CC5)nn4)C3)cc2)c2cc[nH]c2c1=O [I-131]	< 500	< 500
		< 500		< 500		Cn1cc(-c2cc(C(C)(C)O)ccc2Oc2ccc(CC3CC4(CCN(c5ccc(C(=O)N[C@H]6CC[C@H](Oc7ccc(C#N)c(Cl)c7)CC6)nn5)CC4)C3)cc2)c2cc[nH]c2c1=O [I-130]	< 500	< 500
		< 500		< 500		Cn1cc(-c2cc(N3CCCS3(=O)=O)ccc2Oc2ccc(CCC3CCN(c4ccc(C(=O)NC5CCC(Oc6ccc(C#N)c(Cl)c6)CC5)nn4)CC3)cc2)c2cc[nH]c2c1=O (stereo not drawn) [I-239, N-[4-(3-chloro-4-cyano-phenoxy)cyclohexyl]-6-[4-[2-[4-[4-(1,1-dioxo-1,2-thiazolidin-2-yl)-2-(6-methyl-7-oxo-1H-pyrrolo[2,3-c]pyridin-4-yl)phenoxy]phenyl]ethyl]-1-piperidyl]pyridazine-3-carboxamide]	< 500	< 500
			< 500		< 500	Cn1cc(-c2cc(C(C)(C)O)ccc2Oc2ccc(CCCC3CN(c4ccc(C(=O)N[C@H]5CC[C@H](Oc6ccc(C#N)c(Cl)c6)CC5)nn4)C3)cc2)c2cc[nH]c2c1=O [I-127]	< 500	500 to 1500

Second part, the molecule before the results:

SMILES	Kd [1] [nM]	Kd [2] [nM]	GI50 ([5]; Homo sapiens) [nM]	GI50 [5] [nM]	GI50 ([6]; Homo sapiens) [nM]	GI50 [6] [nM]	GI50 [3] [nM]	GI50 [4] [nM]
CCS(=O)(=O)Cc1ccc(Oc2cccc(OCCCC3CCN(c4ccc(C(=O)N[C@H]5CC[C@H](Oc6ccc(C#N)c(Cl)c6)CC5)nn4)CC3)c2F)c(-c2cn(C)c(=O)c3[nH]ccc23)c1 [I-20]	500 to 2500	500 to 2500	< 500				< 500	< 500
Cn1cc(-c2cc(NC(=O)CCC3CCN(c4ccc(C(=O)N[C@H]5CC[C@H](Oc6ccc(C#N)c(Cl)c6)CC5)nn4)CC3)ccc2Oc2ccc(F)cc2F)c2cc[nH]c2c1=O [I-213]	500 to 2500	500 to 2500		1500 to 3000			< 500	500 to 1500
CCS(=O)(=O)c1ccc(Oc2ccc(CN3CC4(C3)CN(c3ccc(C(=O)N[C@H]5CC[C@H](Oc6ccc(C#N)c(Cl)c6)CC5)nn3)C4)c(F)c2)c(-c2cn(C)c(=O)c3[nH]ccc23)c1 [I-74]			< 500		< 500		< 500	< 500
CCS(=O)(=O)Cc1ccc(OC2CC(OCC3CCN(c4ccc(C(=O)NC5CCC(Oc6ccc(C#N)c(Cl)c6)CC5)nn4)CC3)C2)c(-c2cn(C)c(=O)c3[nH]ccc23)c1 (stereo not drawn) [I-240, N-((1r,4r)-4-(3-chloro-4-cyanophenoxy)cyclohexyl)-6-(4-(((1r,3r)-3-(4-((ethylsulfonyl)methyl)-2-(6-methyl-7-oxo-6,7-dihydro-1H-pyrrolo[2,3-c]pyridin-4-yl)phenoxy)cyclobutoxy)methyl)piperidin-1-yl)pyridazine-3-carboxamide]				< 500		< 500	< 500	< 500
CCS(=O)(=O)c1ccc(Oc2ccc(CCC3CCN(c4ccc(C(=O)N[C@H]5CC[C@H](Oc6ccc(C#N)c(Cl)c6)CC5)nn4)CC3)c(OC)c2)c(-c2cn(C)c(=O)c3[nH]ccc23)c1 [I-82]				< 500		< 500	< 500	< 500
CCS(=O)(=O)c1ccc(Oc2cccc(CCCOC3CC4(C3)CN(c3cnc(C(=O)N[C@H]5CC[C@H](Oc6ccc(C#N)c(Cl)c6)CC5)cn3)C4)c2F)c(-c2cn(C)c(=O)c3[nH]ccc23)c1 [I-48]			500 to 1500		< 500		< 500	< 500
CCC1CN(c2ccc(C(=O)N[C@H]3CC[C@H](Oc4ccc(C#N)c(Cl)c4)CC3)nn2)CC1c1ccc(Oc2ccc(S(=O)(=O)CC)cc2-c2cn(C)c(=O)c3[nH]ccc23)cc1 (stereo partly drawn) [I-89]				< 500		< 500	< 500	> 3000
CCS(=O)(=O)Nc1ccc(Oc2cccc(CCC3CCN(c4ccc(C(=O)N[C@H]5CC[C@H](Oc6ccc(C#N)c(Cl)c6)CC5)nn4)CC3)c2F)c(-c2cn(C)c(=O)c3[nH]ccc23)c1 [I-21]			< 500		< 500		< 500	> 3000
CCS(=O)(=O)c1ccc(Oc2ccc(CC3CN(c4ccc(C(=O)N[C@H]5CC[C@H](Oc6ccc(C#N)c(Cl)c6)CC5)nn4)C3)cc2)c(-c2cn(C)c(=O)c3[nH]ccc23)c1 [I-77]			< 500		< 500		< 500	< 500
